Results: paper PMC8395767, “Worsening of the Toxic Effects of (±)Cis-4,4′-DMAR Following Its Co-Administration with (±)Trans-4,4′-DMAR: Neuro-Behavioural, Physiological, Immunohistochemical and Metabolic Studies in Mice” (International Journal of Molecular Sciences, 2021)

How the values were obtained:
Type in all cases: in vivo, mice
8-OHdG = test: Immunohistochemistry, frontal cortex: 8-OHdG; conditions: for Immunoreactivity of 8-OHdG in the frontal cortex: 30 and 60 mg/kg, vs control
From the text: (§1) Following the acute death or the sacrifice of the animals (after 5-h observation period by dislocation of the spine), brains were taken. These were fixed in 4% buffered formalin and then sampled and incorporated into the paraffin (Leica ASP300 processor, Histoline TEC2900 incorporator; Leica Microsystems Srl, Buccinasco, Milano, Italy). Subsequently, the cut (performed with the Leica HistoCore autocut microtome; Leica Microsystems Srl, Buccinasco, Milano, Italy) was designed to create sections with a thickness of 5 µm for each sample.
(§2) On 5-µm-thick paraffined […] sections, we evaluated the expression of a panel of markers: heat shock proteins (HSP27, HSP70, HSP90), SMAC/DIABLO, NF-kB, iNOS, NOX-2, NT, 8-OHDG.
(§3) We used a detection system composed of a biotinylated secondary antibody and HRP-conjugated streptavidin (4plus HRP Universal Detection, Biocare Medical). 3′-,3Diaminobenzidine (DAB) and H2O2 (Betazoid DAB Chromogen Kit, Biocare Medical, Concord, CA, USA) were used as chromogen/substrate. […] In the pictures (sections of the frontal cortex; Figure 3, Figure 4 and Figure 5) to evaluate the variation in the expression of markers (Smac, NOX2, iNOS, 8-OHdG, NT, HSP27, HSP70, HSP90) following treatments, the change in intensity of brown colour (staining of the immunohistochemical technique) in the control and treated tissue was measured. Quantification of Smac, NOX2, iNOS, 8-OHdG, NT, HSP27, HSP70 and HSP90 positive-stained areas was performed by the ImageJ software (imagej.nih.gov/ij/ Accessed date 12 May 2020). […] Positivity was expressed as an extension of the stained analysed area.
(§4) Sweating and salivation were expressed as frequency (e.g., % of animals that developed symptoms); psychomotor agitation was expressed as frequency (% of animals) and duration (total time in mins). Core temperature values were expressed as the difference between control temperature (before injection) and temperature following drug administration (Δ°C). Aggressiveness was expressed as frequency (% of animals which become aggressive) and score (number of bites). […]

HSP90 = test: Immunohistochemistry, frontal cortex: HSP90; conditions: vs control
From the text: as §1, §2
We used a detection system composed of a biotinylated secondary antibody and HRP-conjugated streptavidin (4plus HRP Universal Detection, Biocare Medical). […] In the pictures (sections of the frontal cortex; Figure 3, Figure 4 and Figure 5) to evaluate the variation in the expression of markers (Smac, NOX2, iNOS, 8-OHdG, NT, HSP27, HSP70, HSP90) following treatments, the change in intensity of brown colour (staining of the immunohistochemical technique) in the control and treated tissue was measured. Quantification of Smac, NOX2, iNOS, 8-OHdG, NT, HSP27, HSP70 and HSP90 positive-stained areas was performed by the ImageJ software (imagej.nih.gov/ij/ Accessed date 12 May 2020). […]

iNOS = test: Immunohistochemistry, frontal cortex: iNOS
From the text: as §1, §2, §3, §4

[1] = Excretion studies on urine samples (LC-MS/MS)
Protocol: To study the possible metabolic interaction between cis and trans isomers, we chose to evaluate urinary excretion and metabolic profile of 4,4′-DMAR, as this allowed us to study and correlate physiological and neuro-behavioural responses in the same individual. For the in vivo studies, three different groups of mice were selected. To the first group, a dose of 10 mg/kg of cis-4,4′-DMAR was administered. To the second group, a dose of 10 mg/kg of both cis and trans-4,4′-DMAR was administered. The third group was selected for the collection of urine blank samples. Urine samples were collected in the range of 0–6 h after 4,4′-DMAR or vehicle were intraperitoneally injected.
Urine samples were treated and analysed through a protocol already used by our group for the analysis of the excretion of stimulant drugs in mice. Briefly, our protocol allowed the conversion of conjugated metabolites (i.e., sulfo- and glucorono-conjugates) to phase I metabolites after two hydrolysis steps. […] The residue was reconstituted with 50 μL of mobile phase and analysed with a targeted LC-MS/MS technique. In details, samples were analysed using an Agilent 1200 series HPLC instrument equipped with a SUPELCO Discovery C18 column (15 cm × 2.1 mm × 5 µm) coupled with an API4000 QqQ mass spectrometer (Sciex, 500 Old Connecticut Path, Framingham, MA, USA). […]

Smac/DIABLO = test: Immunohistochemistry, frontal cortex: Smac/DIABLO
From the text: as §1, §2, §3, §4

HSP27 = test: Immunohistochemistry, frontal cortex: HSP27
From the text: as §1, §2
We used a detection system composed of a biotinylated secondary antibody and HRP-conjugated streptavidin (4plus HRP Universal Detection, Biocare Medical). 3′-,3Diaminobenzidine (DAB) and H2O2 (Betazoid DAB Chromogen Kit, Biocare Medical, Concord, CA, USA) were used as chromogen/substrate. The subsequent counterstaining with haematoxylin–eosin allowed the visualization of cell morphology and nuclei. Once this procedure was completed, the slides were mounted and observed under optical microscope. In the pictures (sections of the frontal cortex; Figure 3, Figure 4 and Figure 5) to evaluate the variation in the expression of markers (Smac, NOX2, iNOS, 8-OHdG, NT, HSP27, HSP70, HSP90) following treatments, the change in intensity of brown colour (staining of the immunohistochemical technique) in the control and treated tissue was measured. Quantification of Smac, NOX2, iNOS, 8-OHdG, NT, HSP27, HSP70 and HSP90 positive-stained areas was performed by the ImageJ software (imagej.nih.gov/ij/ Accessed date 12 May 2020). […] Positivity was expressed as an extension of the stained analysed area.
Sweating and salivation were expressed as frequency (e.g., % of animals that developed symptoms); psychomotor agitation was expressed as frequency (% of animals) and duration (total time in mins). Core temperature values were expressed as the difference between control temperature (before injection) and temperature following drug administration (Δ°C). Aggressiveness was expressed as frequency (% of animals which become aggressive) and score (number of bites). Convulsions were expressed as frequency (% of animals that developed seizure), episodes (e.g., number of seizure events), latency of first episode (sec.) and duration of each episode (sec.). Lethality was expressed as frequency (% of animals that died during the observation period (5 h) or during the following 24 h). […] Regarding immunohistochemical analysis, positivity was expressed as the extension of stained analysed area. Results were expressed as means ± mean standard error (SEM). […]

[2] = 30 and 60 mg/kg, vs control, listed as (±)cis

Row | SMILES | Immunoreactivity of 8-OHdG in the frontal cortex (8-OHdG) | Immunoreactivity of 8-OHdG in the frontal cortex (8-OHdG; listed as (±)cis) | Immunoreactivity of HSP90 in the frontal cortex (HSP90; 10 and 30 mg/kg) | Immunoreactivity of iNOS in the frontal cortex (iNOS; 60 mg/kg, vs control) | Immunoreactivity of iNOS in the frontal cortex (iNOS; 60 mg/kg, vs control, listed as (±)cis) | Urinary excretion of the parent compound (normalised to the sum of 4,4′-DMAR and its metabolites, Figure 7B) ([1]; co-administered with (±)trans-4,4′-DMAR 10 mg/kg, vs cis alone) | Immunoreactivity of Smac/DIABLO in the frontal cortex (Smac/DIABLO; 30 and 60 mg/kg, vs control) | Immunoreactivity of Smac/DIABLO in the frontal cortex (Smac/DIABLO; [2]) | Immunoreactivity of HSP27 in the frontal cortex (HSP27; 10 mg/kg alone) | Immunoreactivity of HSP27 in the frontal cortex (HSP27; 30 and 60 mg/kg, vs control) | Immunoreactivity of HSP27 in the frontal cortex (HSP27; [2]) | Expression of 8-OHdG in the frontal cortex (8-OHdG; 30 mg/kg alone) | Expression of HSP90 in the frontal cortex (HSP90; 30 mg/kg alone) | Immunoreactivity of iNOS in the frontal cortex (iNOS; 30 mg/kg alone) | Phase I/II metabolism ([1]; mice urine) | Immunoreactivity of Smac/DIABLO in the frontal cortex (Smac/DIABLO; 30 mg/kg alone) | Immunoreactivity of HSP27 in the frontal cortex (HSP27; 30 mg/kg alone)
1 | Cc1ccc(C2OC(N)=NC2C)cc1 (stereo not drawn) [cis-4,4’-DMAR, 4-methyl-5-(4-methylphenyl)-4,5-dihydrooxazol-2-amine] | increased | overexpressed | reduced | increased | large increase | increase | increased | significant increase | ineffective | increased | overexpressed | – | – | – | – | – | –
2 | Cc1ccc(C2OC(N)=NC2C)cc1 (stereo not drawn) [trans-4,4’-DMAR, 4-methyl-5-(4-methylphenyl)-4,5-dihydrooxazol-2-amine] | – | – | – | – | – | – | – | – | – | – | – | ineffective | reduced | ineffective | did not exhibit | ineffective | ineffective
